# In paper PMC12123601, “Light-Induced, Lysine-Targeting Irreversible Covalent Inhibition of the Human Oxygen Sensing Hydroxylase Factor Inhibiting HIF (FIH)” (Journal of the American Chemical Society, 2025):
# Molecular target: FIH (Homo sapiens, UniProt Q9NWT6)
# Experiment: O-phenylenediamine (OPD) 2OG derivatization turnover assay (remaining 2OG in FIH hydroxylation system)
# Type: biochemical
# Parameters: Concentration of remaining 2OG: unit: µM
# Procedure: To explore whether the covalent inhibitor can effectively and sustainably prevent the hydroxylation process catalyzed by FIH, the inhibitory activities against FIH were evaluated using the fluorescent O-phenylenediamine (OPD) 2OG derivatization turnover assay (Figure S9).
# Figure S9. Schematic of the O-phenylenediamine (OPD) fluorescent derivative assay6. The assay monitors depletion of 2OG.
# (1 picture or pasted object on this page, not shown here) […]
# pET28a vectors encoding for full-length FIH with an N-terminal His6 tag or for FIH (K106A) with an N-terminal His6 tag were purchased from Nanjing Zoonbio Biotechnology. Both the FIHWT and FIHK106A protein were expressed from the respective plasmid in Escherichia coli BL21 at 20 °C for 16 h. E. coli cells were lysed and the lysate were clarified by centrifugation. His6-tagged FIHWT or FIHK106A was purified on a HisTrap affinity column (GE Healthcare) by elution with an imidazole gradient. The final purified proteins were stored in PBS buffer. […]
# Ki = I50 / [1 + ([L]50 + [P]0)/Kd] […]
# 3.2 O-Phenylenediamine (OPD) fluorescent derivative assay
# Assays were carried out by mixing 1 mM DTT, 0.6 mg/mL of catalase, 200 μM 2-OG, 50 mM Hepes, 200 μM HIF-1α (788-807), and inhibitors at pH 7.0 to a final volume of 44 μL and incubated at 37 °C for 5 min. At the same time, FIH enzyme and iron (prepared as 200 mM stock in 20 mM HCl and diluted with water) were mixed at room temperature for 3 min. […] The reaction was stopped by the addition of 100 μL of 0.5 M HCl. After adding 50 μL of 10 mg/mL OPD in 0.5 M HCl and heating at 95 °C for 10 min, the derivatization was achieved. Then, 50 μL of the mixture centrifugated for 5 min was made basic by adding 30 μL of 1.25 M NaOH, and then fluorescence was detected by SPARK Multi-Mode Microplate Reader (Tecan). […]
# Crystals were cryo -protected using mother liquor supplemented with 25%v/v glycerol before manual loop cryo -cooling in liquid N2.
# Data for ligand -bound protein complexes were from single crystals at 100 K using Diamond Light Source (UK) beamlines. The FIH crystal structures were determined by molecular replacement (MR) using the AutoMR (PHASER) subroutine in PHENIX (version 1.18.2) based on the PDB ID: 1H2K crystal structure .
# Sequence of FIH (Q9NWT6 whole entry): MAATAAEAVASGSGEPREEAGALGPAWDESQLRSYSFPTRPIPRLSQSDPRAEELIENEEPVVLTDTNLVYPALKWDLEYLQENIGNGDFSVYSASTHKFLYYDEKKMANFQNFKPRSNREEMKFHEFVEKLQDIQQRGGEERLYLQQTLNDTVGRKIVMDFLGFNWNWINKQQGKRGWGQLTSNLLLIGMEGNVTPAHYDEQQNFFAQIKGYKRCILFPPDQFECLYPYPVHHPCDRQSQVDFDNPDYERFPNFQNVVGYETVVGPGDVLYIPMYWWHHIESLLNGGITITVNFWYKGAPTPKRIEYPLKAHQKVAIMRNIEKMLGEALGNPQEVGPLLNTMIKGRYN
structure (smiles),measurement,setting,value
O=C(O)CNC(=O)c1ncc(-c2cc(-c3ccc(CO)c([N+](=O)[O-])c3)no2)cc1O [NBA-ZG-2291],Inhibition of FIH hydroxylation activity on the HIF peptide (2OG consumption),compared to ZG-2291,more potent and sustained inhibition of FIH hydroxylation activity
same,Concentration of remaining 2OG,"inhibitor 0.14 μM, incubation 0 min, 200 μM 2-OG at start",200.0
same,Concentration of remaining 2OG,"inhibitor 0.14 μM, incubation 15 min",187.5
same,Concentration of remaining 2OG,"inhibitor 0.14 μM, incubation 30 min",184.6
same,Concentration of remaining 2OG,"inhibitor 0.14 μM, incubation 1 h",174.8
same,Concentration of remaining 2OG,"inhibitor 0.14 μM, incubation 4 h",163.1
same,Concentration of remaining 2OG,"inhibitor 0.41 μM, incubation 0 min, 200 μM 2-OG at start",200.0
same,Concentration of remaining 2OG,"inhibitor 0.41 μM, incubation 15 min",189.1
same,Concentration of remaining 2OG,"inhibitor 0.41 μM, incubation 30 min",188.8
same,Concentration of remaining 2OG,"inhibitor 0.41 μM, incubation 1 h",184.6
same,Concentration of remaining 2OG,"inhibitor 0.41 μM, incubation 4 h",171.6
same,Concentration of remaining 2OG,"inhibitor 1.23 μM, incubation 0 min, 200 μM 2-OG at start",200.0
same,Concentration of remaining 2OG,"inhibitor 1.23 μM, incubation 15 min",191.6
same,Concentration of remaining 2OG,"inhibitor 1.23 μM, incubation 30 min",190.6
same,Concentration of remaining 2OG,"inhibitor 1.23 μM, incubation 1 h",187.9
same,Concentration of remaining 2OG,"inhibitor 1.23 μM, incubation 4 h",182.8
same,Concentration of remaining 2OG,"inhibitor 3.70 μM, incubation 0 min, 200 μM 2-OG at start",200.0
same,Concentration of remaining 2OG,"inhibitor 3.70 μM, incubation 15 min",194.0
same,Concentration of remaining 2OG,"inhibitor 3.70 μM, incubation 30 min",193.5
same,Concentration of remaining 2OG,"inhibitor 3.70 μM, incubation 1 h",189.6
same,Concentration of remaining 2OG,"inhibitor 3.70 μM, incubation 4 h",185.3
same,Concentration of remaining 2OG,"inhibitor 11.1 μM, incubation 0 min, 200 μM 2-OG at start",200.0
same,Concentration of remaining 2OG,"inhibitor 11.1 μM, incubation 15 min",199.7
same,Concentration of remaining 2OG,"inhibitor 11.1 μM, incubation 30 min",198.7
same,Concentration of remaining 2OG,"inhibitor 11.1 μM, incubation 1 h",197.8
same,Concentration of remaining 2OG,"inhibitor 11.1 μM, incubation 4 h",197.2
same,Concentration of remaining 2OG,"inhibitor 33.3 μM, incubation 0 min, 200 μM 2-OG at start",200.0
same,Concentration of remaining 2OG,"inhibitor 33.3 μM, incubation 15 min",200.8
same,Concentration of remaining 2OG,"inhibitor 33.3 μM, incubation 30 min",198.7
same,Concentration of remaining 2OG,"inhibitor 33.3 μM, incubation 1 h",197.6
same,Concentration of remaining 2OG,"inhibitor 33.3 μM, incubation 4 h",197.3
same,Concentration of remaining 2OG,"inhibitor 100 μM, incubation 0 min, 200 μM 2-OG at start",200.0
same,Concentration of remaining 2OG,"inhibitor 100 μM, incubation 15 min",200.1
same,Concentration of remaining 2OG,"inhibitor 100 μM, incubation 30 min",199.2
same,Concentration of remaining 2OG,"inhibitor 100 μM, incubation 1 h",198.5
same,Concentration of remaining 2OG,"inhibitor 100 μM, incubation 4 h",198.3
same,Concentration of remaining 2OG,"inhibitor 300 μM, incubation 0 min, 200 μM 2-OG at start",200.0
same,Concentration of remaining 2OG,"inhibitor 300 μM, incubation 15 min",201.4
same,Concentration of remaining 2OG,"inhibitor 300 μM, incubation 30 min",199.5
same,Concentration of remaining 2OG,"inhibitor 300 μM, incubation 1 h",199.2
same,Concentration of remaining 2OG,"inhibitor 300 μM, incubation 4 h",198.6
